Like-named read-outs stand apart in the source and are kept apart here.
Key:
[1] = molecular target: T1, HCV polymerase 1B (Δ21 NS5B, BK) (Hepatitis C virus genotype 1b, UniProt P26663); assay: biochemical
T1 construct: 20 to 50 nM Δ21 NS5B
Experimental: (§1) HCV Polymerase Inhibition Assay
(§2) Either two-fold serial dilutions (fractional inhibition assay) or a narrower range of dilutions spanning the IC50 of the inhibitor (tight binding assay) of the inhibitors were incubated with 20 mM Tris-Cl pH 7.4, 2 mM MnCl2, 1 mM dithiothreitol, 1 mM ethylene diamine tetraacetic acid (EDTA), 60 to 125 μM GTP and 20 to 50 nM Δ21 NS5B (HCV Strain 1B (BK, Genbank accession number M58335, or H77, Genbank accession number AF011751)) for 15 min at room temperature. The reaction was initiated by the addition of 20 μM CTP, 20 μM ATP, 1 μM ^3H-UTP (10 mCi/umol), 5 nM template RNA and 0.1 U/μl RNase inhibitor (RNasin, Promega), and allowed to proceed for 2 to 4 h at room temperature. Reaction volume was 50 μl. The reaction was terminated by the addition of 1 volume of 4 mM spermine in 10 mM Tris-Cl pH 8.0, 1 mM EDTA. After incubation for at least 15 min at room temperature, the precipitated RNA was captured by filtering through a GF/B filter (Millipore) in a 96 well format. The filter plate was washed three times with 200 μl each of 2 mM spermine, 10 mM Tris-Cl pH 8.0, 1 mM EDTA, and 2 times with ethanol. After air-drying, 30 μl of Microscint 20 scintillation cocktail (Packard) was added to each well, and the retained cpm were determined by scintillation counting. […] Retained cpm were plotted vs. inhibitor concentration and fit to equation 1 using non-linear regression (ref. 1) to obtain the IC50 values: Retained cpm=A[sqrt{(IC50+It−Et)^2+4*IC50*Et}−(IC50+It−Et)]
Ref. Morrison, J. F. and S. R. Stone. 1985. Approaches to the study and analysis of the inhibition of enzymes by slow- and tight-binding inhibitors. Comments Mol. Cell. Biophys. 2: 347-368.
The sequence of the template RNA used was: 5′-[…] […] […] […] […] […] […] […] […] […] […] […] […] […] […] […] […]-3′ (SEQ ID NO: 1)

[2] = molecular target: T2, HCV polymerase 1A (Δ21 NS5B, H77) (Hepatitis C virus genotype 1a, UniProt P27958); assay: biochemical; conditions: IC50 1a
T2 construct: 20 to 50 nM Δ21 NS5B
Experimental: as §1
as §2, with “The” for “Either two-fold serial dilutions (fractional inhibition assay) or a narrower range of dilutions spanning the IC50 of the inhibitor (tight binding assay) of the inhibitors were incubated with 20 mM Tris-Cl pH 7.4, 2 mM MnCl2, 1 mM dithiothreitol, 1 mM ethylene diamine tetraacetic acid (EDTA), 60 to 125 μM GTP and 20 to 50 nM Δ21 NS5B (HCV Strain 1B (BK, Genbank accession number M58335, or H77, Genbank accession number AF011751)) for 15 min at room temperature. The”
Ref. Morrison, J. F. and S. R. Stone. […] Approaches to the study and analysis of the inhibition of enzymes by slow- and tight-binding inhibitors. Comments Mol. Cell. Biophys.
The sequence of the template RNA used was: 5′-[…]

[3] = test system: genotype 1b-Con1 subgenomic replicon cell line; assay: microbe, parasite or virus in culture; assay type: cell-based, HCV; conditions: read-out: EC50 1b
[4] = test system: genotype 1a-H77 subgenomic replicon cell line; assay: microbe, parasite or virus in culture; assay type: cell-based, HCV; conditions: read-out: EC50 1a

T2 sequence (P27958 2421-2990, stated change not applied): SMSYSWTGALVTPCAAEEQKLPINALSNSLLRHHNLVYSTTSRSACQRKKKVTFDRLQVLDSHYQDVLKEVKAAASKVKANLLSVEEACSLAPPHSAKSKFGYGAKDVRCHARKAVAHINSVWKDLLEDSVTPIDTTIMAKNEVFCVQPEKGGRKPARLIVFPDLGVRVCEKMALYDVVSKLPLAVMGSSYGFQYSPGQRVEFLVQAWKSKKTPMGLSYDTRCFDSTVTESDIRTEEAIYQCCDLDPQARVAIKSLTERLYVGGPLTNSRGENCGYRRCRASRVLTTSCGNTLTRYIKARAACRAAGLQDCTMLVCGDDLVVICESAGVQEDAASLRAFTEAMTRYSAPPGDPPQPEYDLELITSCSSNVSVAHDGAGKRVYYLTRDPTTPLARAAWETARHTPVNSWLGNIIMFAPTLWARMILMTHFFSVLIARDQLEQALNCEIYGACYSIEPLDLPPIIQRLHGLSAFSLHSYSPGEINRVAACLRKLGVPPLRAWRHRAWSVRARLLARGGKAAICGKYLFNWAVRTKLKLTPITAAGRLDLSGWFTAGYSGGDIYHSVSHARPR
T1 sequence (P26663 2420-2989, stated change not applied): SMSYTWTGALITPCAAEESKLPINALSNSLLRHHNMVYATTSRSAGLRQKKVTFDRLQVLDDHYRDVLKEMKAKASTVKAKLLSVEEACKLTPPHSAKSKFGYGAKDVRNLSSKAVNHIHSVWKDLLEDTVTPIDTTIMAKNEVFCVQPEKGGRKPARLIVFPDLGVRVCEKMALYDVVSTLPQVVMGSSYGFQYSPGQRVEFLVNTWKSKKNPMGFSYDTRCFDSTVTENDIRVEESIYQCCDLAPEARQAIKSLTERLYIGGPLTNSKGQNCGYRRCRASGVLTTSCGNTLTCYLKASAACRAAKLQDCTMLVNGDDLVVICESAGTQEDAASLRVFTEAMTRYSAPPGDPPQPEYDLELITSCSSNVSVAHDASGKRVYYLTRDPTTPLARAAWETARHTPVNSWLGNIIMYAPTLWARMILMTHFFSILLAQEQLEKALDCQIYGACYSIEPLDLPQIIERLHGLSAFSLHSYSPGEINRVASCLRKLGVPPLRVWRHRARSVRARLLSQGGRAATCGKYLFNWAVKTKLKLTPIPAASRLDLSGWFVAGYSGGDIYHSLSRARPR

Compound | IC50 [1] [nM] | IC50 [2] [nM] | EC50 ([3]; Hepatitis C virus) [nM] | EC50 ([4]; Hepatitis C virus) [nM] | other results
CC(C)(C)c1cc(N2CCC(=O)NC2=O)cc(NC(=O)c2ccc(N)cc2)c1O [IA-L4-1.6, 4-amino-N-(3-tert-butyl-5-(2,4-dioxotetrahydropyrimidin-1(2H)-yl)-2-hydroxyphenyl)benzamide] | > 1000 | > 1000 |  |  | 
COc1c(C(=O)Nc2ccc(S(C)(=O)=O)cc2)cc(N2CCC(=O)NC2=O)cc1C(C)(C)C [IA-L3-1.78, 3-tert-butyl-5-(2,4-dioxotetrahydropyrimidin-1(2H)-yl)-2-methoxy-N-(4-(methylsulfonyl)phenyl)benzamide] | > 1000 | > 1000 |  |  | 
CC(C)(C)c1cc(N2CCC(=O)NC2=O)cc(CN2CCCc3cc(NS(C)(=O)=O)ccc32)c1O [IA-L5-1-2.2, N-(1-(3-tert-butyl-5-(2,4-dioxotetrahydropyrimidin-1(2H)-yl)-2-hydroxybenzyl)-1,2,3,4-tetrahydroquinolin-6-yl)methanesulfonamide] | > 1000 | > 1000 |  |  | 
CC(C)(C)c1cc(N2CCC(=O)NC2=O)cc(CNc2ccc(NS(C)(=O)=O)cc2)c1O [IA-L9-1.3, N-(4-(3-tert-butyl-5-(2,4-dioxotetrahydropyrimidin-1(2H)-yl)-2-hydroxybenzylamino)phenyl)methanesulfonamide] | > 1000 | > 1000 |  |  | 
COc1c(C(=O)Nc2ccc(NS(C)(=O)=O)cc2)cc(N2CCC(=O)N(CC3OCCO3)C2=O)cc1C(C)(C)C [IA-L3-1.117, 5-(3-((1,3-dioxolan-2-yl)methyl)-2,4-dioxotetrahydropyrimidin-1(2H)-yl)-3-tert-butyl-2-methoxy-N-(4-(methylsulfonamido)phenyl)benzamide] | > 1000 | > 1000 |  |  | 
COc1c(C(=O)Nc2ccc(NC(=O)COC(C)=O)cc2)cc(N2CCC(=O)NC2=O)cc1C(C)(C)C [IA-L3-1.48, 2-(4-(3-tert-butyl-5-(2,4-dioxotetrahydropyrimidin-1(2H)-yl)-2-methoxybenzamido)phenyl-amino)-2-oxoethyl acetate] | > 1000 | > 1000 |  |  | 
COC(=O)N(c1ccc(NC(=O)c2cc(N3CCC(=O)NC3=O)cc(C(C)(C)C)c2OC)cc1)S(C)(=O)=O [IA-L3-1.73, Methyl 4-(3-tert-butyl-5-(2,4-dioxotetrahydropyrimidin-1(2H)-yl)-2-methoxybenzamido) phenyl(methylsulfonyl)carbamate] | > 1000 | > 1000 |  |  | 
COc1c(C(=O)Nc2ccc(N(C(=O)OCC(C)C)S(C)(=O)=O)cc2)cc(N2CCC(=O)NC2=O)cc1C(C)(C)C [IA-L3-1.76, Isobutyl 4-(3-tert-butyl-5-(2,4-dioxotetrahydropyrimidin-1(2H)-yl)-2-methoxybenzamido) phenyl(methylsulfonyl)carbamate] | > 1000 | > 1000 |  |  | 
COc1c(C(=O)Nc2ccccc2S(N)(=O)=O)cc(N2CCC(=O)NC2=O)cc1C(C)(C)C [IA-L3-1.80, 3-tert-butyl-5-(2,4-dioxotetrahydropyrimidin-1(2H)-yl)-2-methoxy-N-(2-sulfamoylphenyl)benzamide] | > 1000 | > 1000 |  |  | 
COc1c(C(=O)Nc2ccc(NC(C)=O)cc2)cc(N2CCC(=O)NC2=O)cc1C(C)(C)C [IA-L3-1.47, N-(4-acetamidophenyl)-3-tert-butyl-5-(2,4-dioxotetrahydropyrimidin-1(2H)-yl)-2-methoxy-benzamide] | > 1000 | > 1000 |  |  | 
COc1c(C(=O)Nc2ccc(N(COC(=O)C(C)(C)C)S(C)(=O)=O)cc2)cc(N2CCC(=O)NC2=O)cc1C(C)(C)C [IA-L3-1.65, (N-(4-(3-tert-butyl-5-(2,4-dioxotetrahydropyrimidin-1(2H)-yl)-2-methoxybenzamido)phenyl)methylsulfonamido)methyl pivalate] | > 1000 | > 1000 |  |  | 
COc1c(C(=O)Nc2ccc(N(C(=O)C(C)C)S(C)(=O)=O)cc2)cc(N2CCC(=O)NC2=O)cc1C(C)(C)C [IA-L3-1.72, 3-tert-butyl-5-(2,4-dioxotetrahydropyrimidin-1(2H)-yl)-2-methoxy-N-(4-(N-(methylsulfonyl)isobutyramido)phenyl)benzamide] | > 1000 | > 1000 |  |  | 
CC(C)(C)c1cc(N2CCC(=O)NC2=O)cc(C(=O)Nc2ccc(OCC(N)=O)cc2)c1O [IA-L3-1.18, N-(4-(2-amino-2-oxoethoxy)phenyl)-3-tert-butyl-5-(2,4-dioxotetrahydropyrimidin-1(2H)-yl)-2-hydroxybenzamide] |  | > 1000 | 100 to 1000 | > 1000 | 
COc1c(-c2ccc3c(c2)CC[C@@]3(F)CNS(C)(=O)=O)cc(-n2ccc(=O)[nH]c2=O)cc1C(C)(C)C [IB-L0-2.20, (S)—N-((5-(3-tert-butyl-5-(2,4-dioxo-3,4-dihydropyrimidin-1(2H)-yl)-2-methoxyphenyl)-1-fluoro-2,3-dihydro-1H-inden-1-yl)methyl)methanesulfonamide] |  |  | 10 to 100 | 100 to 1000 | 
CC(C)(C)c1cc(N2CCC(=O)NC2=O)cc(C(=O)Nc2ccc(OCC#N)cc2)c1O [IA-L3-1.17, 3-tert-butyl-N-(4-(cyanomethoxy)phenyl)-5-(2,4-dioxotetrahydropyrimidin-1(2H)-yl)-2-hydroxybenzamide] |  | > 1000 | > 1000 | > 1000 | 
COc1c(/C=C/c2ccc(NS(C)(=O)=O)cc2C(=O)N(C)C)cc(-n2ccc(=O)[nH]c2=O)cc1C(C)(C)C [IB-L1-1.14, 2-{(E)-2-[3-tert-Butyl-5-(2,4-dioxo-3,4-dihydro-2H-pyrimidin-1-yl)-2-methoxy-phenyl]-vinyl}-5-methanesulfonylamino-N,N-dimethyl-benzamide] |  |  | < 10 | 10 to 100 | 
COC(=O)c1cc(NS(C)(=O)=O)ccc1CCc1cc(-n2ccc(=O)[nH]c2=O)cc(C(C)(C)C)c1OC [IB-L5-2-1.1, methyl 2-(3-tert-butyl-5-(2,4-dioxo-3,4-dihydropyrimidin-1(2H)-yl)-2-methoxyphenethyl)-5-(methylsulfonamido)benzoate] |  |  | < 10 | 10 to 100 | 
COc1c(/C=C/c2ccc(NS(C)(=O)=O)cc2)cc(-n2ccc(=O)[nH]c2=O)cc1-c1ccco1 [IB-L1-1.46, (E)-N-(4-(5-(2,4-dioxo-3,4-dihydropyrimidin-1(2H)-yl)-3-(furan-2-yl)-2-methoxystyryl)phenyl)methanesulfonamide] |  |  | < 10 | 100 to 1000 | 
CC(C)(C)c1cc(NC(=O)c2ccc(NS(C)(=O)=O)cc2)cc(N2CCC(=O)NC2=O)c1 [IA-L3-1.84, N-(3-tert-butyl-5-(2,4-dioxotetrahydropyrimidin-1(2H)-yl)phenyl)-4-(methylsulfonamido) benzamide] |  |  |  |  | EC50 ([3]; genotype 1b-Con1 replicon, luciferase reporter): > 1000 nM; EC50 ([4]; genotype 1a-H77 replicon, luciferase reporter): > 1000 nM
COc1c(-c2nc3cc(NS(C)(=O)=O)ccc3o2)cc(N2CCC(=O)NC2=O)cc1C(C)(C)C [IA-L0-2.8, N-(2-(3-tert-butyl-5-(2,4-dioxotetrahydropyrimidin-1(2H)-yl)-2-methoxyphenyl)benzo[d]oxazol-5-yl)methanesulfonamide] |  |  | 10 to 100 | 100 to 1000 | 
COc1c(/C=C/c2ccc([N+](=O)[O-])cc2)cc(N2CCC(=O)NC2=O)cc1C(C)(C)C [IA-L1-1.22, (E)-1-(3-tert-butyl-4-methoxy-5-(4-nitrostyryl)phenyl)dihydropyrimidine-2,4(1H,3H)-dione] |  |  | 100 to 1000 | > 1000 | 
